Data published in US9295673B2, “Combination of mTOR inhibitors and P13-kinase inhibitors, and uses thereof” (Intellikine LLC, priority 2011, dated 2016).
Where two headings read alike, the source gives them in different places.

What was measured:
mTOR = target: T1, mTOR (Homo sapiens, UniProt P42345); test: mTOR kinase inhibition assay (radiometric or LanthaScreen TR-FRET); assay type: biochemical
T1 construct: purchased Invitrogen
Description: The compounds described herein can be tested against recombinant mTOR (Invitrogen) in an assay containing 50 mM HEPES, pH 7.5, 1 mM EGTA, 10 mM MgCl2, 2.5 mM, 0.01% Tween, 10 μM ATP (2.5 μCi of μ-32P-ATP), and 3 mg/mL BSA. Rat recombinant PHAS-1/4EBP1 (Calbiochem; 2 mg/mL) is used as a substrate. Reactions are terminated by spotting onto nitrocellulose, which is washed with 1M NaC1/1% phosphoric acid (approximately 6 times, 5-10 minutes each). Sheets are dried and the transferred radioactivity quantitated by phosphorimaging.
For instance, one can use Invitrogen's LanthaScreen™ Kinase assay to test the inhibitors of mTOR disclosed herein. This assay is a time resolved FRET platform that measures the phosphorylation of GFP labeled 4EBP1 by mTOR kinase. The kinase reaction is performed in a white 384 well microtitre plate. The total reaction volume is 20 ul per well and the reaction buffer composition is 50 mM HEPES pH7.5, 0.01% Polysorbate 20, 1 mM EGTA, 10 mM MnCl2, and 2 mM DTT. In the first step, each well receives 2 ul of test compound in 20% dimethylsulphoxide resulting in a 2% DMSO final concentration. […] The plate is sealed and incubated for 1 hour at room temperature. […] The plate is sealed, incubated for 1 hour at room temperature, and then read on a plate reader set up for LanthaScreen™ TR-FRET. Data is analyzed and IC50s are generated using GraphPad Prism 5.

PC3 = PC3 proliferation (Alamar Blue); assay type: cell-based; details: Homo sapiens, PC-3
Description: For instance, an in vitro cellular proliferation assay can be performed to measure the metabolic activity of live cells. The assay is performed in a 96 well microtiter plate using Alamar Blue reduction. […] A compound disclosed herein is diluted in Tumor Cell Media and added in a 10 ul volume. […] A volume of 10 uL of Alamar Blue reagent is added to each well and plates are incubated for 3 hours at 37 C and 5% CO2.

PI3K α = PI3K α (Homo sapiens, UniProt P42336); test: PI 3-Kinase (human) HTRF assay, PI3K α
PI3K α, sequence (P42336 whole entry): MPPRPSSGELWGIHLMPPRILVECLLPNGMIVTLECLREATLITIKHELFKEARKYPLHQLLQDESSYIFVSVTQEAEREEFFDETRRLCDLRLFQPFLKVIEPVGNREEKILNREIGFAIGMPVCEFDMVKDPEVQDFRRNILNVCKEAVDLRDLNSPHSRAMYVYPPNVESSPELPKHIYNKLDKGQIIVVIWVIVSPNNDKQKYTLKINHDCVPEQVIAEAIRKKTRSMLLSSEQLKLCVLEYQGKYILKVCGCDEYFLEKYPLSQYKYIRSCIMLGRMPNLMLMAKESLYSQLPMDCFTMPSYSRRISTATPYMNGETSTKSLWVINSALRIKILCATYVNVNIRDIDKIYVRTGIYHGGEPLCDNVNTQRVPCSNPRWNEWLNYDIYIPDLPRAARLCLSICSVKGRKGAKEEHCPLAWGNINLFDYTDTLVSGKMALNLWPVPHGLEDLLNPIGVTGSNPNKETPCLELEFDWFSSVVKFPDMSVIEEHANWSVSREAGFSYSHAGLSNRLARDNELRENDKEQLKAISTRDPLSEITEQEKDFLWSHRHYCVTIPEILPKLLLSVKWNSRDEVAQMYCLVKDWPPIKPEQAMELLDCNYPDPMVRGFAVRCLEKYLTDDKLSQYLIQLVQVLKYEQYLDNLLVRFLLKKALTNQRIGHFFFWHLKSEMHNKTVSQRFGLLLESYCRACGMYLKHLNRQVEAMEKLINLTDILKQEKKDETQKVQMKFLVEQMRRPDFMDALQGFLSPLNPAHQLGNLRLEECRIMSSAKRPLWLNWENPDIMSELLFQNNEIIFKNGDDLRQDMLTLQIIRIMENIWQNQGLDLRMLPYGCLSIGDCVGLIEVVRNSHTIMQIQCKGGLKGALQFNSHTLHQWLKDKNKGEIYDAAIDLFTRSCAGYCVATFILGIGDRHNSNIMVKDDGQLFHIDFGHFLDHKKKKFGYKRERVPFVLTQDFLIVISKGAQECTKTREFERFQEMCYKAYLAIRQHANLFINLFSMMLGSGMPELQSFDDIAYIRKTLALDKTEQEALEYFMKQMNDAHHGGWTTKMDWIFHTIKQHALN
PI3K α, sequence (P27986 whole entry partner): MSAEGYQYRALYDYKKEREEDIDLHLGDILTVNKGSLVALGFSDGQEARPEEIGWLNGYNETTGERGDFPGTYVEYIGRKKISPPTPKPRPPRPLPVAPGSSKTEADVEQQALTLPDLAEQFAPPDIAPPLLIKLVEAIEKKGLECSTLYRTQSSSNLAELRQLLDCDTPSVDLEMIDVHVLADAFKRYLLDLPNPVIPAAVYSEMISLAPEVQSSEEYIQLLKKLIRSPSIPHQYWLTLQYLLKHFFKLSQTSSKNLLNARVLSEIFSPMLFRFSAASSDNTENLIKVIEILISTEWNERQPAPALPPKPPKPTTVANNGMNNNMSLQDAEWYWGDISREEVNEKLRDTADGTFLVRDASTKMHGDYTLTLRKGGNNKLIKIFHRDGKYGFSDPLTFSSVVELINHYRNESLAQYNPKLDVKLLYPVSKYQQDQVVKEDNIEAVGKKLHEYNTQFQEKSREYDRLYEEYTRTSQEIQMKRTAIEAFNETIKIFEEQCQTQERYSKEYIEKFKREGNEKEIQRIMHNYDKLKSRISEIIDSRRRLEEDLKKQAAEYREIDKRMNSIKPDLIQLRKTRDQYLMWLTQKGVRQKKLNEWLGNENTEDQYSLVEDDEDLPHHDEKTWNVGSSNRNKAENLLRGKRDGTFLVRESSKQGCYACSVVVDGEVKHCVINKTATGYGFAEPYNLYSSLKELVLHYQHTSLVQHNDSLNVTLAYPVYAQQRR
Description: (§1) An exemplary system is PI 3-Kinase (human) HTRF™ Assay from Upstate. […] Briefly, the assay is a time resolved FRET assay that indirectly measures PIP3 product formed by the activity of a PI3-K. The kinase reaction is performed in a microtitre plate (e.g., a 384 well microtitre plate). The total reaction volume is approximately 20 ul per well. In the first step, each well receives 2 ul of test compound in 20% dimethylsulphoxide resulting in a 2% DMSO final concentration. […] The plate is sealed and incubated for 15 minutes at room temperature. […] The plate is sealed and incubated for 1 hour at room temperature. The reaction is stopped by adding 5 ul of Stop Solution per well and then 5 ul of Detection Mix is added per well. The plate is sealed, incubated for 1 hour at room temperature, and then read on an appropriate plate reader. Data is analyzed and IC50s are generated using GraphPad Prism 5.

PI3K β = PI3K β (Homo sapiens, UniProt P42338); test: PI 3-Kinase (human) HTRF assay, PI3K β
PI3K β, sequence (P42338 whole entry): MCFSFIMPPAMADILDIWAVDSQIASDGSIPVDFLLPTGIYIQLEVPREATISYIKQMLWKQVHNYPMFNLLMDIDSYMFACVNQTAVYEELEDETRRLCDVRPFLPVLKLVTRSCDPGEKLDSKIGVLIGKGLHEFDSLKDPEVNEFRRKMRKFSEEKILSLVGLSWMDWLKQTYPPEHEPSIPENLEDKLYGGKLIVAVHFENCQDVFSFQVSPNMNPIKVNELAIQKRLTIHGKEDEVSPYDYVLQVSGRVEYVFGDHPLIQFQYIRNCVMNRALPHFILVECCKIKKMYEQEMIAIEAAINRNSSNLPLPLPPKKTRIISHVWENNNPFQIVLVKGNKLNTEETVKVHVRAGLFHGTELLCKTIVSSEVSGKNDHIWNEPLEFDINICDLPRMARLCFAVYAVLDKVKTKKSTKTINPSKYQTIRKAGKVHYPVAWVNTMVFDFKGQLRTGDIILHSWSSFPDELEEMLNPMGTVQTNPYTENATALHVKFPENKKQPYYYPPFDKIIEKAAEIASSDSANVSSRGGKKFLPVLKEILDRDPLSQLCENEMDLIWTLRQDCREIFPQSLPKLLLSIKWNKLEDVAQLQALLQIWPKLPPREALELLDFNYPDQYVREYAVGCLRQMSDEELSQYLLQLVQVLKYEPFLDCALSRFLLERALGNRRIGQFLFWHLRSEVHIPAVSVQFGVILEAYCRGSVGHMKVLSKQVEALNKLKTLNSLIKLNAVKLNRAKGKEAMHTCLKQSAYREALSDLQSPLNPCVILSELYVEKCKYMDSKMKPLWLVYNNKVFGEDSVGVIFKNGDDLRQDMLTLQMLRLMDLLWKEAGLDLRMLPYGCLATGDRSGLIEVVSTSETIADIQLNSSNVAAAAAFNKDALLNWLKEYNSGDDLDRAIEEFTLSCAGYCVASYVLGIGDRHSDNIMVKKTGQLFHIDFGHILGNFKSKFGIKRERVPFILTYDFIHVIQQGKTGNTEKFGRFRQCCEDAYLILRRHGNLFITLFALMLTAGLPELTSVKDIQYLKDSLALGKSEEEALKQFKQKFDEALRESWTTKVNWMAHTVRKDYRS
PI3K β, sequence (P27986 whole entry partner): as the sequence (P27986 whole entry partner) above

PI3K γ = PI3K γ (Homo sapiens, UniProt P48736); test: PI 3-Kinase (human) HTRF assay, PI3K γ
PI3K γ, sequence (P48736 whole entry): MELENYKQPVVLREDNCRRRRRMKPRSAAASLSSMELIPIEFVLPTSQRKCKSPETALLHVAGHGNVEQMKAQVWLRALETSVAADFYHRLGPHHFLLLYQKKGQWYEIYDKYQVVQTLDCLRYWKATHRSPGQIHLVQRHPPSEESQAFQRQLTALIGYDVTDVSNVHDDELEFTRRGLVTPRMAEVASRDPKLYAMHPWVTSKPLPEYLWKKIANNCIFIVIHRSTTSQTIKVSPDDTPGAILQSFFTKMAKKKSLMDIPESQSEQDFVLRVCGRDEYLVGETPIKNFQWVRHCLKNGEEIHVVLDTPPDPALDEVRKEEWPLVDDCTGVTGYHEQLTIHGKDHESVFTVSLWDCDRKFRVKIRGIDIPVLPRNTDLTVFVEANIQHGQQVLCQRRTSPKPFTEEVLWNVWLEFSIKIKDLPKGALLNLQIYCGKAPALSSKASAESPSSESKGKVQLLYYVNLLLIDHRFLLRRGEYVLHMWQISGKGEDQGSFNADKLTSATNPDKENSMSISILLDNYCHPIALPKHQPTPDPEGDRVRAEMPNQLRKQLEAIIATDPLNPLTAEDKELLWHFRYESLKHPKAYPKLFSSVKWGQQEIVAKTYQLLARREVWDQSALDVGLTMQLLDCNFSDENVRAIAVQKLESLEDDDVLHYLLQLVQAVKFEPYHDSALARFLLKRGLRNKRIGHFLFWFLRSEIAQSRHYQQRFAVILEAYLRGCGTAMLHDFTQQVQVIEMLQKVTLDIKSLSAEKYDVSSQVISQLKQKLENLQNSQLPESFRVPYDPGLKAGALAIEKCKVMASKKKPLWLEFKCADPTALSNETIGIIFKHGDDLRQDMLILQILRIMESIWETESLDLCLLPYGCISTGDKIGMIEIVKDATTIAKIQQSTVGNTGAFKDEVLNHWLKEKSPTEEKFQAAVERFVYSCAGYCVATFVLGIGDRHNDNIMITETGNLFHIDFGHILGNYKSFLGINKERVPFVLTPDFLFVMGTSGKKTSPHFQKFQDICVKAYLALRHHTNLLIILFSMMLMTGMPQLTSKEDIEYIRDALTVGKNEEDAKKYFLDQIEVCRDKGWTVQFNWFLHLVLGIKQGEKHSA

PI3K δ = PI3K δ (Homo sapiens, UniProt O00329); test: PI 3-Kinase (human) HTRF assay, PI3K δ
PI3K δ, sequence (O00329 whole entry): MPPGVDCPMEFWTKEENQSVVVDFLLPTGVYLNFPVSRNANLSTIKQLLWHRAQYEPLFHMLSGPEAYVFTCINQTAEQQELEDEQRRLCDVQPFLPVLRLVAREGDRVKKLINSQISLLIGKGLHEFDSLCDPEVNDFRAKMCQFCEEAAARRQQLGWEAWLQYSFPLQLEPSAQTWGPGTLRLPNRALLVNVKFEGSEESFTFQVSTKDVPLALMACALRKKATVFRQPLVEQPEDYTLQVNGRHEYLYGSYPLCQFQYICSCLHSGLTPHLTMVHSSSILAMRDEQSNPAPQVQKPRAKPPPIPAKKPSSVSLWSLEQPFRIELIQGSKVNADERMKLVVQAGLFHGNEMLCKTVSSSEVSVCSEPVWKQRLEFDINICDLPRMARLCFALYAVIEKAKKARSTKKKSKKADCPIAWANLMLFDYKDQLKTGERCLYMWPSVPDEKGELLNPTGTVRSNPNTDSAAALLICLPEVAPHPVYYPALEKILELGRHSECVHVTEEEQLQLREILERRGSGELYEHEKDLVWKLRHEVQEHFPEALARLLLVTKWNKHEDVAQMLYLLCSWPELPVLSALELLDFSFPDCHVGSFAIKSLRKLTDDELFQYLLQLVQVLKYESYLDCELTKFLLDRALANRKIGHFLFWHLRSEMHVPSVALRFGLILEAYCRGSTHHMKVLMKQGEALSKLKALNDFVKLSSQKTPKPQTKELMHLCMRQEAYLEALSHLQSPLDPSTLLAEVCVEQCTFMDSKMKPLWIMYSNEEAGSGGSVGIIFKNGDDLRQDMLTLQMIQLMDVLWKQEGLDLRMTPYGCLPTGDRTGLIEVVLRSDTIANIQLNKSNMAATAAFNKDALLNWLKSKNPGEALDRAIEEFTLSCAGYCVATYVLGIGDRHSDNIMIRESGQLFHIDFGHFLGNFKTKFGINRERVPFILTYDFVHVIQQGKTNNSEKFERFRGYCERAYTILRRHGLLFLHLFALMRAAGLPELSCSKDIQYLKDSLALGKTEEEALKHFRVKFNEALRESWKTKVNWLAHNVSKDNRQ
PI3K δ, sequence (P27986 whole entry partner): as the sequence (P27986 whole entry partner) above
Description: as §1

| Structure (SMILES) | IC50 (mTOR; Table 2, read-out: mTORC IC50) | IC50 (PI3K α; read-out: PI3K α IC50, Table 2) | IC50 (PI3K β; read-out: PI3K β IC50, Table 2) | IC50 (PI3K α; read-out: PI3K α IC50) | IC50 (PI3K γ; read-out: PI3K γ IC50, Table 2) | IC50 (PI3K δ; read-out: PI3K δ IC50) | further results |
| --- | --- | --- | --- | --- | --- | --- | --- |
| C=Cc1oc(NC(C)=O)nc1/C=C/c1nn(C)c2ncnc(N)c12 [Compound 2] | – | – | – | – | – | – | IC50 (mTOR; Table 1, read-out: mTOR IC50): < 100 nM; EC50 (PC3; Table 1): < 1000 nM; IC50 (PI3K α): < 10000 nM; IC50 (PI3K β): > 10000 nM; IC50 (PI3K γ): < 1000 nM; IC50 (PI3K δ): < 1000 nM |
| Nc1ncnc2c1c(-c1cc3cccc(O)c3[nH]1)nn2C1CCN(C(=O)C2CC2)CC1 [Compound 41] | < 10 nM | > 500 nM | > 500 nM | – | – | – | IC50 (PI3K γ; read-out: PI3K γ IC50): 25 to 50 nM; IC50 (PI3K δ; read-out: PI3K δ IC50, Table 2): > 500 nM |
| Nc1ncnc2c1c(-c1cc3cc(O)ccc3[nH]1)nn2C1CC(N2CCOCC2)C1 (centres unmarked) [Compound 49] | < 10 nM | – | > 500 nM | > 500 nM | 100 to 500 nM | 100 to 500 nM | – |
| CC(C)n1nc(-c2cc3cccc(Cl)c3[nH]2)c2c(N)ncnc21 [Compound 50] | < 50 nM | > 500 nM | > 500 nM | – | 100 to 500 nM | 100 to 500 nM | – |
| Nc1ncnc2c1c(-c1cc3cccc(Cl)c3[nH]1)nn2C1CCOCC1 [Compound 51] | < 50 nM | – | > 500 nM | > 500 nM | 100 to 500 nM | – | IC50 (PI3K δ; read-out: PI3K δ IC50, Table 2): 100 to 500 nM |
| CN1CCN(C2CC(n3nc(-c4cc5cc(O)ccc5[nH]4)c4c(N)ncnc43)C2)CC1 (centres unmarked) [Compound 52] | < 500 nM | – | > 500 nM | > 500 nM | – | 100 to 500 nM | IC50 (PI3K γ; read-out: PI3K γ IC50): > 500 nM |
| CC(C)N1CCC(n2nc(-c3cc4cc(O)ccc4[nH]3)c3c(N)ncnc32)CC1 [Compound 55] | < 500 nM | > 500 nM | > 500 nM | – | > 500 nM | – | – |
| CC(C)N1CCC(n2nc(-c3cc4cc(O)cc(Cl)c4[nH]3)c3c(N)ncnc32)CC1 [Compound 56] | > 500 nM | – | > 500 nM | > 500 nM | > 500 nM | – | – |
| Nc1ncnc2c1c(-c1cc3cc(O)ccc3[nH]1)nn2C1CCC(N2CCOCC2)CC1 (centres unmarked) [Compound 57] | < 25 nM | > 500 nM | > 500 nM | – | > 500 nM | – | – |
| CN1CCN(C2CCC(n3nc(-c4cc5cc(O)ccc5[nH]4)c4c(N)ncnc43)CC2)CC1 (centres unmarked) [Compound 58] | > 500 nM | – | > 500 nM | > 500 nM | > 500 nM | – | – |
| COc1ccc2cc(-c3nn(C4CCOCC4)c4ncnc(N)c34)[nH]c2c1 [Compound 59] | > 500 nM | > 500 nM | > 500 nM | – | > 500 nM | – | – |
| Nc1ncnc2c1c(-c1cc3ccc(O)cc3[nH]1)nn2C1CCOCC1 [Compound 60] | < 100 nM | > 500 nM | > 500 nM | – | 50 to 100 nM | – | – |
| COc1ccc(Cl)c2cc(-c3nn(C4CCOCC4)c4ncnc(N)c34)[nH]c12 [Compound 61] | < 25 nM | > 500 nM | > 500 nM | – | > 500 nM | > 500 nM | – |
| Nc1ncnc2c1c(-c1cc3cccc(O)c3[nH]1)nn2C1CCOCC1 [Compound 62] | < 5 nM | > 500 nM | > 500 nM | – | > 500 nM | – | IC50 (PI3K δ; read-out: PI3K δ IC50, Table 2): 50 to 100 nM |
| COc1cccc2cc(-c3nn(C4CCOCC4)c4ncnc(N)c34)[nH]c12 [Compound 63] | < 5 nM | – | > 500 nM | 100 to 500 nM | 10 to 25 nM | 10 to 25 nM | – |
| CC(C)N1CCC(n2nc(-c3cc4cccc(O)c4[nH]3)c3c(N)ncnc32)CC1 [Compound 64] | < 25 nM | > 500 nM | > 500 nM | – | 100 to 500 nM | – | IC50 (PI3K δ; read-out: PI3K δ IC50, Table 2): 100 to 500 nM |
| CC(=O)N1CCC(n2nc(-c3cc4ccc(O)cc4[nH]3)c3c(N)ncnc32)CC1 [Compound 65] | < 10 nM | – | > 500 nM | 25 to 50 nM | 10 to 25 nM | 10 to 25 nM | – |
| COc1cccc2cc(-c3nn(C4CCN(C(=O)C5CC5)CC4)c4ncnc(N)c34)[nH]c12 [Compound 66] | > 500 nM | > 500 nM | > 500 nM | – | > 500 nM | > 500 nM | – |
| COc1cc(Cl)c2[nH]c(-c3nn(C4CCOCC4)c4ncnc(N)c34)cc2c1 [Compound 67] | > 500 nM | > 500 nM | > 500 nM | – | > 500 nM | – | IC50 (PI3K δ; read-out: PI3K δ IC50, Table 2): > 500 nM |
| Nc1ncnc2c1c(-c1cc3cc(O)cc(Cl)c3[nH]1)nn2C1CCOCC1 [Compound 68] | < 5 nM | 100 to 500 nM | > 500 nM | – | 25 to 50 nM | 10 to 25 nM | – |
| CC(=O)N1CCC(n2nc(-c3cc4c(Cl)ccc(O)c4[nH]3)c3c(N)ncnc32)CC1 [Compound 69] | < 5 nM | > 500 nM | > 500 nM | – | > 500 nM | 100 to 500 nM | – |
| CC(=O)N1CCC(n2nc(-c3cc4cc(O)cc(Cl)c4[nH]3)c3c(N)ncnc32)CC1 [Compound 70] | < 5 nM | 100 to 500 nM | > 500 nM | – | 50 to 100 nM | – | IC50 (PI3K δ; read-out: PI3K δ IC50, Table 2): 10 to 25 nM |
| CC(C)N1CCC(n2nc(-c3cc4c(Cl)ccc(O)c4[nH]3)c3c(N)ncnc32)CC1 [Compound 71] | < 100 nM | > 500 nM | > 500 nM | – | > 500 nM | > 500 nM | – |
| CC(=O)Nc1nc2ccc(-c3ccc4oc(N)nc4c3)cc2s1 [Compound 231] | – | – | – | < 100 nM | – | < 100 nM | IC50 (mTOR; read-out: mTORC IC50): < 10000 nM; IC50 (PI3K β; read-out: PI3K β IC50): < 1000 nM; IC50 (PI3K γ; read-out: PI3K γ IC50): < 100 nM |
| O=C(c1cnc2ccc(-c3cnc(Cl)c(NS(=O)(=O)c4ccccc4)c3)cn12)N1CCOCC1 [Compound 451] | – | – | – | – | – | – | IC50 (PC3; PC3 cells): < 1000 nM |
